These results are taken from ChEMBL document CHEMBL3745716, “Synthesis, pharmacological assessment, molecular modeling and in silico studies of fused tricyclic coumarin derivatives as a new family of multifunctional anti-Alzheimer agents” (Eur J Med Chem, 2016).

Data set [1] addresses T1, Acetylcholinesterase (Electrophorus electricus, UniProt O42275).
Description: Inhibition of electric eel AChE using acetylthiocholine iodide as substrate preincubated for 5 mins followed by substrate addition measured after 5 mins by Ellman's method
Data set [2] is described as follows: Potency index, ratio of trolox IC50 to compound IC50 for ABTS radical scavenging activity.
The next data set deals with Cholinesterase (Equus caballus, UniProt P81908).
The test system of another data set is Mus musculus. Description: In vivo inhibition of AChE in ip dosed BALB/c ByJ mouse brain assessed as hydrolysis of acetylthiocholine iodide after 48 hrs by Ellman's method. Format: functional, organism-based.
For data set [3], the target named is Acetylcholinesterase (Electrophorus electricus) (UniProt O42275). Description: Potency index, ratio of galantamine IC50 to compound IC50 for electric eel AChE.
The target in data set [4] is T1, Acetylcholinesterase. Description: Mixed-type inhibition of electric eel AChE using acetylthiocholine iodide as substrate assessed as free enzyme preincubated for 5 mins followed by substrate addition measured over 6 mins by Lineweaver Burk plot analysis.
Data set [5] relates to SK-N-SH. The experiment in a line: Neurotoxicity against human SK-N-SH cells assessed as cell viability at 160 uM after 24 hrs by MTT assay. Type of data set: toxicity, cell-based.
Data set [6] relates to SK-N-SH. The experiment in a line: Neurotoxicity against human SK-N-SH cells assessed as cell viability at 200 uM after 24 hrs by MTT assay. Format: toxicity, cell-based. For orientation: Tetrazolium assays rely on reduction of a dye to a coloured formazan, in cell work by metabolically active cells.
Data set [7] has as its system SK-N-SH. The experiment in a line: Neurotoxicity against human SK-N-SH cells assessed as cell viability at 80 uM after 24 hrs by MTT assay. Format: toxicity, cell-based.
For data set [8], the system named is SK-N-SH. The experiment in a line: Neurotoxicity against human SK-N-SH cells assessed as cell viability at 40 uM after 24 hrs by MTT assay. Type of data set: toxicity, cell-based.
In data set [9] the target is T1, Acetylcholinesterase. The experiment in a line: Mixed-type inhibition of electric eel AChE using acetylthiocholine iodide as substrate assessed as enzyme-substrate complex preincubated for 5 mins followed by substrate addition measured over 6 mins by Lineweaver Burk plot analysis.
The test system of data set [10] is SK-N-SH. The experiment in a line: Neurotoxicity against human SK-N-SH cells assessed as cell viability at 120 uM after 24 hrs by MTT assay. Type of data set: toxicity, cell-based.
Data set [11] deals with SK-N-SH. Description: Neuroprotective activity against H2O2-induced cell death in human SK-N-SH cells assessed as cell viability preincubated for 3 hrs followed by H202 challenge after 24 hrs by MTT assay. Format: functional, cell-based.

The source made the active and inactive calls. The calls are words filed in the database; no cut-off is given here.

A word on the IC50: it is the concentration that inhibits the measured activity by half. The low end stands for greater potency, the high end for weaker potency. The term Ki denotes the equilibrium dissociation constant of an inhibitor or competing ligand from its target.

Chain of Acetylcholinesterase (Electrophorus electricus) (O42275 24-633 limits assumed): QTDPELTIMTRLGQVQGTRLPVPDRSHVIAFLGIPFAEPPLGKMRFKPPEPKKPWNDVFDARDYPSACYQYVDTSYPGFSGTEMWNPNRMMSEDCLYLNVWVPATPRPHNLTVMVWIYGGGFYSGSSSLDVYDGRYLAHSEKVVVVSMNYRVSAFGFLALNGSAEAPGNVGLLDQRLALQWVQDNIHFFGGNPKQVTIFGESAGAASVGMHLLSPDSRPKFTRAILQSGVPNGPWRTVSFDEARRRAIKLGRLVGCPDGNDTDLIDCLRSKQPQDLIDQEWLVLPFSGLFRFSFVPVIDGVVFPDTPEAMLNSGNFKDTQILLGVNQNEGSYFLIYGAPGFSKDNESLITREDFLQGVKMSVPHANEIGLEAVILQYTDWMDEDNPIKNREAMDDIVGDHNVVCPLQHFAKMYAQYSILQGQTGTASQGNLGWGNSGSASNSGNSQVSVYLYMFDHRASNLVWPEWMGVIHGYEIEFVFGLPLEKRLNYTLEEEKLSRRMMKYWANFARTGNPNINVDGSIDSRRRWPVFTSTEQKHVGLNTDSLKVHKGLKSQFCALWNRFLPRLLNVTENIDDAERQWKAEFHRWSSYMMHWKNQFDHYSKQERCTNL
Chain of Cholinesterase (P81908 whole entry): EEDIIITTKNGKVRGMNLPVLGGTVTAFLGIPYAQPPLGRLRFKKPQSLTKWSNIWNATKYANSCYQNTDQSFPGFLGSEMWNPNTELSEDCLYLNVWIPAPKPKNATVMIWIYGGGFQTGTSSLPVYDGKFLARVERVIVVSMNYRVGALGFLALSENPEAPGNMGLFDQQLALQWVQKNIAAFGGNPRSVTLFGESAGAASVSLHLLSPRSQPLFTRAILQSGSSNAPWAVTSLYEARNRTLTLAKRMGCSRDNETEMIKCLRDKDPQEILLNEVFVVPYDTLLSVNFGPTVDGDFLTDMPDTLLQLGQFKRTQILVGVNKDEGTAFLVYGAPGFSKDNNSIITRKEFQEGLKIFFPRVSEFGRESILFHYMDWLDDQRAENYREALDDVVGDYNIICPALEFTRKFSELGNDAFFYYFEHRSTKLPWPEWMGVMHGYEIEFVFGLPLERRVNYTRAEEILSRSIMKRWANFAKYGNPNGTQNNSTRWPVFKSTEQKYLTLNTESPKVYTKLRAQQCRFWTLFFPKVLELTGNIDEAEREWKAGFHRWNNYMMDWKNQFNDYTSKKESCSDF
T1 sequence (O42275 whole entry): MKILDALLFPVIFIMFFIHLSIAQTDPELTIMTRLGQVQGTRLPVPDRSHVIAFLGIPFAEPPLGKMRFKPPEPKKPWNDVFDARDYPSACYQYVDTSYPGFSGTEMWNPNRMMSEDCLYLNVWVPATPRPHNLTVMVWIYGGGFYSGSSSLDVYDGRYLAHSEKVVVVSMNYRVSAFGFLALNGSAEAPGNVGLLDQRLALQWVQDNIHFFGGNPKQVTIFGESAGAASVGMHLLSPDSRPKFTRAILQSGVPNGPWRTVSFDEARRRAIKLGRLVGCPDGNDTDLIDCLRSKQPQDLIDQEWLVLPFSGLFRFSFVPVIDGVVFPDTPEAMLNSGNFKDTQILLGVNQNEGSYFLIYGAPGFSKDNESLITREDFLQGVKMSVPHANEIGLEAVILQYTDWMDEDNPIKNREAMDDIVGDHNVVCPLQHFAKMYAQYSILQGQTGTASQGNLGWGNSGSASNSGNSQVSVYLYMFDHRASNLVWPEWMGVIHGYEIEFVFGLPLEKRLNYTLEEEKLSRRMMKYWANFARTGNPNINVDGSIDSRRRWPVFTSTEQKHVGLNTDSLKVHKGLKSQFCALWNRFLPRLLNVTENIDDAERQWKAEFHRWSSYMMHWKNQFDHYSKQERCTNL

`COc1ccc(C(C)NC(=O)c2cc3c(ccc4c(C)cc(=O)oc43)oc2=N)cc1` (stereo unspecified) came in with an IC50 of 9.04 µM. Further, half-maximal inhibition on Acetylcholinesterase [1] (IC50) required 1.9 µM. Moreover, the Ratio IC50 in [2] is 1.7.

As to `COc1ccccc1OCCNC(=O)c1cc2c(ccc3c(C)cc(=O)oc32)oc1=N`, inhibition was half-maximal at 13 µM (IC50). At Acetylcholinesterase [1], the half-inhibitory concentration (IC50) was 2.6 µM. This compound also yielded a concentration for half-maximal inhibition (IC50) against Cholinesterase of 24.8 µM.

`CNC(=O)c1cc2c(ccc3c(C)cc(=O)oc32)oc1=N`: the 50% inhibitory concentration (IC50) was 34.2 µM. The same compound yielded a half-inhibitory concentration (IC50) on Acetylcholinesterase [1] of 1.4 µM. This compound also showed an IC50 against Cholinesterase greater than 100 µM.

For `Cc1cc(=O)oc2c1ccc1oc(=N)c(C(=O)NCc3cccc(Br)c3)cc12`, the IC50 was 7.98 µM. The inhibition entry in the data set on Mus musculus was “Active”. The compound also registered a half-inhibitory concentration (IC50) at Acetylcholinesterase [1] of 0.003 µM. The Ratio IC50 in [3] is 2. For the same compound, the Ki at Acetylcholinesterase [4] is 0.0103 µM. Also, the Activity result with SK-N-SH [5] is “Toxic”. The Activity entry in the data set with SK-N-SH [6] is recorded as “Toxic”. Besides, the Ratio IC50 in data set [2] was 1.7. For the same compound, the Activity entry with SK-N-SH [7] is listed as “Toxic”. This compound gave an IC50 at Cholinesterase greater than 100 µM. Also, the Activity entry in the data set with SK-N-SH [8] was “Toxic”. For the same compound, the inhibition constant Ki at Acetylcholinesterase [9] stood at 0.0193 µM. Further, the Activity entry with SK-N-SH [10] was “Toxic”. Further, the Activity entry with SK-N-SH [11] is “Dose-dependent effect”.

With `Cc1cc(=O)oc2c1ccc1oc(=N)c(C(=O)NC3CC3)cc12`, the IC50 is greater than 50 µM. Also, on Acetylcholinesterase [1], the IC50 amounted to 0.91 µM. In addition, it took 38.9 µM to reach half-maximal inhibition at Cholinesterase (IC50).

The compound `Cc1cc(=O)oc2c1ccc1oc(=N)c(C(=O)NC(c3ccccc3)c3ccccc3)cc12` came in with an IC50 greater than 50 µM. The compound also had an IC50 against Acetylcholinesterase [1] of 0.09 µM. Further, the Ratio IC50 in data set [3] came out at 2.

The compound `Cc1cc(=O)oc2c1ccc1oc(=N)c(C(=O)N3CCOCC3)cc12` yielded an IC50 of 11.3 µM. This compound also came in with an IC50 on Acetylcholinesterase [1] of 0.115 µM. The Ratio IC50 in data set [3] was 2. In data set [2], the Ratio IC50 was found to be 1.7.

Consider `Cc1cc(=O)oc2c1ccc1oc(=N)c(C(=O)NC(C)c3ccccc3)cc12` (stereo unspecified), for which inhibition was half-maximal at 14.1 µM (IC50). At Acetylcholinesterase [1], this compound displayed an IC50 of 0.247 µM. Moreover, in data set [3], the Ratio IC50 came to 2. Also, in data set [2], the Ratio IC50 turned out to be 1.7. The compound further gave an IC50 at Cholinesterase of 35.8 µM.

Take `Cc1cc(=O)oc2c1ccc1oc(=N)c(C(=O)NCc3ccccc3Br)cc12`: half-maximal inhibition (IC50) was put at 11.9 µM. On Acetylcholinesterase [1], this compound registered an IC50 of 0.016 µM. Moreover, in data set [3], the Ratio IC50 turned out to be 2. Besides, the Activity result in the data set on SK-N-SH [5] is recorded as “Non-toxic”. Besides, the Activity entry in the data set with SK-N-SH [6] is reported as “Non-toxic”. In data set [2], the Ratio IC50 worked out at 1.7. For the same compound, the Activity result in the data set on SK-N-SH [7] is “Non-toxic”. Further, the IC50 on Cholinesterase was greater than 100 µM. Further, the Activity result in the data set with SK-N-SH [8] is recorded as “Non-toxic”. For the same compound, the Activity result in the data set with SK-N-SH [10] is on record as “Non-toxic”. Besides, in the data set on SK-N-SH [11], the Activity result is “Dose-dependent effect”.

For `Cc1cc(=O)oc2c1ccc1oc(=N)c(C(=O)NCc3ccccc3)cc12`, the IC50 is greater than 50 µM. Also, half-maximal inhibition against Acetylcholinesterase [1] (IC50) required 2.13 µM. Moreover, the Ratio IC50 in [3] was found to be 2. Also, on Cholinesterase, the IC50 was greater than 100 µM.

Take `COc1ccc(CNC(=O)c2cc3c(ccc4c(C)cc(=O)oc43)oc2=N)c(OC)c1`: the IC50 is greater than 50 µM. At Acetylcholinesterase [1], this compound came in with an IC50 of 0.357 µM. The Ratio IC50 in data set [3] turned out to be 2. In addition, at Cholinesterase, the IC50 is greater than 100 µM.

As for `Cc1cc(=O)oc2c1ccc1oc(=N)c(C(=O)NCc3ccccc3Cl)cc12`, 16 µM corresponded to half-maximal inhibition (IC50). The same compound gave a half-maximal inhibitory concentration (IC50) against Acetylcholinesterase [1] of 0.012 µM. For the same compound, the Ratio IC50 in data set [3] was found to be 2. Besides, the Activity entry in the data set with SK-N-SH [5] is recorded as “Non-toxic”. In addition, the Activity result in the data set with SK-N-SH [6] is on record as “Non-toxic”. In data set [2], the Ratio IC50 was found to be 1.7. For the same compound, the Activity result with SK-N-SH [7] is “Non-toxic”. Moreover, the IC50 against Cholinesterase is greater than 100 µM. The Activity result in the data set on SK-N-SH [8] is “Non-toxic”. In addition, in the data set with SK-N-SH [10], the Activity result was “Non-toxic”. For the same compound, the Activity result with SK-N-SH [11] is “Dose-dependent effect”.

Compound `Cc1cc(=O)oc2c1ccc1oc(=N)c(C(=O)N3CCCC3)cc12` came in with an IC50 greater than 50 µM. For the same compound, the IC50 against Acetylcholinesterase [1] turned out to be 0.984 µM. Further, in data set [3], the Ratio IC50 was 2. The IC50 against Cholinesterase was determined as 73.1 µM.

Take `CCNC(=O)c1cc2c(ccc3c(C)cc(=O)oc32)oc1=N`: the IC50 is greater than 50 µM. The same compound yielded a half-maximal inhibitory concentration (IC50) at Acetylcholinesterase [1] of 0.294 µM. Also, the Ratio IC50 in data set [3] amounted to 2. Also, the IC50 against Cholinesterase is 11.3 µM.

Consider `Cc1c(C)c2c(c(C)c1O)CCC(C)(C(=O)O)O2` (stereo unspecified) [TROLOX], for which the 50% inhibitory concentration (IC50) was determined as 27.4 µM. That is a double-digit micromolar value.

`Cc1cc(=O)oc2c1ccc1oc(=N)c(C(=O)NC3CCCCC3)cc12`: the IC50 was greater than 50 µM. Moreover, the IC50 at Acetylcholinesterase [1] is 0.027 µM. In addition, the Ratio IC50 in [3] is 2. In addition, at Cholinesterase, the concentration for half-maximal inhibition (IC50) amounted to 42 µM.

In turn, `Cc1cc(=O)oc2c1ccc1oc(=N)c(C(=O)NCc3cccc(Cl)c3)cc12` showed a 50% inhibitory concentration (IC50) of 10.3 µM. Besides, on Acetylcholinesterase [1], the concentration for half-maximal inhibition (IC50) turned out to be 0.019 µM. Moreover, in data set [3], the Ratio IC50 was found to be 2. Also, the Activity entry in the data set with SK-N-SH [5] is “Non-toxic”. For the same compound, the Activity result in the data set with SK-N-SH [6] was “Non-toxic”. In addition, in [2], the Ratio IC50 was found to be 1.7. Further, the Activity entry in the data set with SK-N-SH [7] was “Non-toxic”. Besides, the IC50 on Cholinesterase is greater than 100 µM. Further, the Activity entry in the data set on SK-N-SH [8] is “Non-toxic”. Further, the Activity result in the data set with SK-N-SH [10] is “Non-toxic”. In the data set with SK-N-SH [11], the Activity entry was “Dose-dependent effect”.

`CCCCCCCCCCCCNC(=O)c1cc2c(ccc3c(C)cc(=O)oc32)oc1=N` gave an IC50 greater than 50 µM. The compound also displayed an IC50 on Acetylcholinesterase [1] of 0.022 µM. Moreover, in [3], the Ratio IC50 is 2. Also, the concentration for half-maximal inhibition (IC50) at Cholinesterase was greater than 100 µM.

As for `Cc1cc(=O)oc2c1ccc1oc(=N)c(C(=O)NCc3ccc(C(C)(C)C)cc3)cc12`, the IC50 came out at 13.4 µM. Also, the midpoint of inhibition at Acetylcholinesterase [1], the IC50, lay at 0.01 µM. Also, the Ratio IC50 in data set [3] was determined as 2. The Activity entry in the data set on SK-N-SH [5] is on record as “Toxic”. Also, in the data set on SK-N-SH [6], the Activity result is reported as “Toxic”. Moreover, the Ratio IC50 in data set [2] amounted to 1.7. Moreover, the Activity result in the data set with SK-N-SH [7] is reported as “Toxic”. This compound also had an IC50 against Cholinesterase of 57.9 µM. In addition, the Activity result with SK-N-SH [8] was “Toxic”. Moreover, in the data set with SK-N-SH [10], the Activity result is “Toxic”. In addition, in the data set on SK-N-SH [11], the Activity entry is “Dose-dependent effect”.

Turning to `Cc1cc(=O)oc2c1ccc1oc(=N)c(C(=O)Nc3ccccc3[N+](=O)[O-])cc12`, the half-inhibitory concentration (IC50) was greater than 50 µM. For the same compound, on Acetylcholinesterase [1], the 50% inhibitory concentration (IC50) amounted to 0.226 µM. Also, the Ratio IC50 in [3] was 2. The compound further yielded a half-inhibitory concentration (IC50) against Cholinesterase greater than 100 µM.
